Assay results published in patent US12589103B2, “Antimicrobial and antiviral effects of C2-C7 alkyl boronic acids” (CORNELL UNIVERSITY, priority 2019, dated 2026).
Entries after “also recorded” stand apart in the source; their conditions may differ.

Experiments:
[1] = system: enteric pathogens (E. coli, Salmonella, Listeria monocytogenes, Klebsiella); assay: Bacterial growth panel, OD600 growth-curve AUC ratio (heat map); type: cell-based
[2] = 8-week toxicity study in mice, drinking water; type: in vivo, C57/B18 mice
Method: The toxicity of boric and ethylboronic acids were examined with C57/B18 mice. At concentrations of 0, 10, 20, and 40 mM, the two chemicals were given to each group (6 mice) in drinking water. The body weight of each mouse was recorded weekly for 8 weeks, and fecal samples were also collected weekly for 16s sequencing. All animals were sacrificed at the end of 8th week. The length of whole intestine and ileum of each mouse was measured, and sections of the intestine (i. e. small intestine, ileum, cecum, and large intestine) were taken for histopathological and FISH analysis. Fecal samples were used for 16s and lipocalin analysis.
For lipocalin analysis, mouse fecal pellets were collected and frozen at −80 C during toxicity study. To determine lipocalin activity fecal pellets were diluted in microfuge tubes 1/30 with 0.1% Tween20/PBS and vortexed for 20 min at maximum speed. Undissolved particles were removed by centrifuging at 12,000 rpm for 10 min at 4 C. Supernatant was removed and placed into a clean microfuge tube. Lipocalin activity was determined using Mouse Lipocalin-2/NGAL DuoSet ELISA Kit (R&D Systems, DY1857) per manufacturer's instructions.

[3] = system: AIEC E. coli (541-1, LF82) virulence genes; assay: Virulence gene expression of AIEC (qRT-PCR); type: cell-based; conditions: 30 mM
Method: Total RNA was extracted using the Qiagen RNAProtect-RNeasy Kit per manufacturer's protocol. Total RNA was treated with TURBO DNA-Free Kit (Ambion), followed by a two-step qRT-PCR analysis, using Qiagen's QuantiTect Reverse Transcription Kit and QuantiNova SYBR Green PCR Kit. Each qPCR reaction contained 1 μl of cDNA, 0.7 μl of each forward and reverse primers (10 μM), 5 μL of 2× SYBR Green Master Mix, 1 μl of QN ROX Reference Dye and […] of nuclease-free water to make the total volume of 10 μl. The reaction was run with ABI7000 (Applied Biosystems). […] The relative change of a targeted gene expression was calculated by using the equation RQ=2^−ΔΔCT.

[4] = system: diarrheagenic E. coli and APEC; assay: Growth of diarrheagenic and APEC E. coli in LB media; type: cell-based; conditions: 30 mM
Method: The control sample contained 40 mM NaCl.
Diarrheagenic E. coli pathogroups differ by their preferential host colonization sites, virulence mechanisms, and clinical symptoms.

[5] = system: adherent invasive E. coli (AIEC, 541-1); assay: Growth in M9 media with ethanolamine or NH4Cl; conditions: BA, EBA 10-40 mM, PBA 15 mM, MBA 30 mM
nF-κB = assay: E. coli induced nF-κB activation in HEK-Blue KD-TLR5 cells (SEAP reporter); type: cell-based; conditions: m.o.i 20, SEAP at 24 h
Method: HEK-Blue KD-TLR5 cells were used to detect the promotor activation of nF-κB by E. coli infection with or without boric or boronic acid treatment. nF-κB is the prototypical transcription factor for pro-inflammatory cytokines in epithelium. Briefly, cells were seeded in 96-well plates at a density of 5×10^4 cells per well. E. coli was diluted into fresh cell medium containing either NaCl (Control), boric or boronic acid at an m.o.i of 200 as 10× inocula, followed by addition of this inoculum (10 μl) into each well containing 100 μl of medium for a final m.o.i of 20. At 3 h post infection, the cell medium was carefully removed from each well, and replaced with 100 μl of fresh medium containing gentamycin (200 μg mL^−1). At 24 h post infection, the spent medium was collected, and centrifuged at 12,000 r.p.m. for 5 min to remove any particulate matter. QUANTI-Blue Kit (InvivoGen, San Diego, CA, USA) was used to detect the reporter protein SEAP (secreted alkaline phosphatase) following the manufacturer's instructions.

[6] = system: Klebsiella pneumonia (13Dk); assay: Growth in M9 media; conditions: EBA 10-40 mM
[7] = system: typhoid toxin B subunit (CdtB); type: cell-based, Salmonella typhi
[8] = DSS induced colitis in mice; type: in vivo, C57BL mice; conditions: 40 mM in drinking water after DSS (3%)
Method: On the basis of favorable in vivo toxicity tests, the ability of BA and EBA to reduce the severity of inflammation in murine models of microbially driven IBD was tested. The effect of BA and EBA (40 mM) on intestinal inflammation was evaluated in mice with dextran sodium sulfate (“DSS”) induced colitis. The DSS model has a complex etiopathogenesis that involves host-immune and inflammatory responses and the enteric microbiome BA To test their protecting ability to the gastrointestinal tract, boric and ethylboronic acid were given to C57BL mice at 40 mM concentration respectively in drinking water after DSS (3%) treatment. Body weight and fecal samples were taken before and after 6-day treatment. At the 6th day, all mice were euthanized for gross necropsy and histopathology. Intestinal sections were collected and embedded for pathological and FISH analysis. Fecal samples were used for 16s and lipocalin analysis.

[9] = system: AIEC in murine macrophage J774A.1 cells; assay: Uptake and survival of AIEC in J774A.1 macrophages; type: cell-based, E. coli
Feline Lung cells = assay: Cytotoxicity in FIPV infected Feline Lung cells
[10] = system: Feline Infectious Peritonitis Virus (FIPV) Black (TN-406); assay: FIPV replication and syncytium formation, immunofluorescence; type: cell-based, Feline Coronavirus type I; conditions: 10, 20, 30, 40 mM; Feline Lung cells, 18 h post-infection

SMILES: CCB(O)O [EBA, ethyl boronic acid]
- antibacterial activity / potency against enteric pathogens (growth, AUC+test compound:AUC−test compound) ([1]; 40 mM (BA, EBA, PBA), 20 mM (BBA), 10 mM (PeBA), 5 mM (HBA, SBA), 1 mM (OBA), 0.5 mM (DBA), 2 mM (DoDBA), 20 mM (FMPBA), 24-48 hrs): higher potency against enteropathogens
- selectivity for Gram Negative enteropathogens ([1]; growth panel): highest
- adverse effects in mice ([2]; 40 mM): safely administered to mice without adverse effects
- fecal 16S profiles ([2]; mouse, in vivo): not significantly different from control mice
- pduC expression in 541-1 [3]: Upregulation
- virulence gene expression of AIEC ([3]; mid log phase, compared with BA): inhibited virulence gene expression
- inhibition of growth of diarrheagenic and APEC E. coli [4]: have activity versus the diarrheagenic E. coli and APEC that varies by pathogroup; also recorded: more effective in inhibiting bacterial growth than BA overall
- inhibition of growth of AIEC 541-1 [5]: much more effective
- induction of nF-κB by E. coli (nF-κB): reduced the induction of nF-κB by E. coli
- inhibition of growth of Klebsiella pneumonia 13Dk [6]: effective
- typhoid toxin (CdtB) production [7]: inhibition of toxin production (CdtB)
- colon length in DSS colitis versus control mice [8]: not significantly different
- fecal lipocalin levels in DSS colitis versus control mice [8]: not significantly different
- intestinal bleeding in DSS colitis [8]: absent
- survival of AIEC in J774A.1 macrophages ([9]; 30 mM during infection, 24 h post infection): inhibited the survival
- uptake of AIEC by J774A.1 macrophages ([9]; 30 mM, 1 h): inhibited the uptake
- cytotoxicity in antiviral assay (Feline Lung cells): Cytotoxicity was not observed at antiviral doses
- replication and syncytium formation of FIPV [10]: inhibited replication and syncytium formation of FIPV in infected cells
